Measurements reported in patent US20230085307A1, “PYRIDAZINONE COMPOUND AND HERBICIDE” (NISSAN CHEMICAL CORPORATION, priority 2019, published 2023).

Key:
late watergrass = assay: Test Example 1: herbicidal activity, application before weed generation under submerged conditions (Table 16, symbol A); format: in vivo, late watergrass (Echinochloa oryzicola); settings: 320 g/ha applied herbicide
Method in brief: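 Emulsion formulation, water-diluted to set dose, was put onto the flooded surface (4 cm depth, alluvial soil) the same day weeds were sown and 2.5-leaf rice transplanted. After 3 weeks at 25-30 °C under glass, each species was rated 0 (≤5% kill) to 5 (≥90% kill).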

Japanese bulrush = assay: Test Example 2: herbicidal activity, application during weed generation under submerged conditions (Table 17, symbol B); format: in vivo, Japanese bulrush (Schoenoplectus juncoides); settings: AAH 320 g/ha; application during weed generation, submerged conditions
Method in brief: (§1)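 Alluvial soil in Wagner pots was flooded to 4 cm depth and sown with the three weeds together; pots were kept in a greenhouse at 25° C. to 30° C. At the one to two leaf stage, an emulsion formulation diluted in water to a set rate went onto the water surface; scored three weeks later.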

oval-leafed pondweed = assay: Test Example 2: herbicidal activity, application during weed generation under submerged conditions (Table 17, symbol C); format: in vivo, oval-leafed pondweed (Monochoria vaginalis); settings: AAH 320 g/ha; application during weed generation, submerged conditions
Method in brief: as §1

rice flat sedge = assay: Test Example 3: herbicidal effect by foliage application, Wagner pot (Table 18, symbol E); format: in vivo, rice flat sedge (Cyperus iria); settings: amount of applied herbicide 320 g/ha
Method in brief: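 Plants were sown in alluvial soil held under 0.1–0.5 cm standing water and grown 14 days in a greenhouse at 25–30 °C. An emulsifiable formulation, water-diluted to the set dose, was then sprayed onto the foliage, and effects were scored three weeks later using previously defined criteria.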

southern crabgrass [1] = assay: Test Example 4: herbicidal effect by soil treatment (Table 19, symbol F); format: in vivo, southern crabgrass (Digitaria ciliaris); settings: amount of applied herbicide 320 g/ha
Method in brief: (§2)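 Step 1: sow seeds in sterilized diluvial soil, cover ~1.5 cm. Step 2: spray diluted emulsion onto soil surface at predetermined rate. Step 3: greenhouse, 25–30° C, three weeks. Step 4: grade effect on each plant by earlier criteria.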

green foxtail [2] = assay: Test Example 4: herbicidal effect by soil treatment (Table 19, symbol G); format: in vivo, green foxtail (Setaria viridis); settings: amount of applied herbicide 320 g/ha
Method in brief: as §2

Italian ryegrass = assay: Test Example 4: herbicidal effect by soil treatment (Table 19, symbol K); format: in vivo, Italian ryegrass (Lolium multiflorum); settings: amount of applied herbicide 320 g/ha
Method in brief: as §2

redroot pigweed = assay: Test Example 4: herbicidal effect by soil treatment (Table 19, symbol N); format: in vivo, redroot pigweed (Amaranthus retroflexus); settings: amount of applied herbicide 320 g/ha
Method in brief: as §2

chickweed [3] = assay: Test Example 4: herbicidal effect by soil treatment (Table 19, symbol P); format: in vivo, common chickweed (Stellaria media); settings: amount of applied herbicide 320 g/ha
Method in brief: as §2

southern crabgrass [4] = assay: Test Example 5: herbicidal effect by foliage application, plastic box (Table 20, symbol F); format: in vivo, southern crabgrass (Digitaria ciliaris); settings: foliage application, AAH 320 g/ha, evaluated three weeks after application
Method in brief: (§3)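 Foliar spray test: emulsion formulation diluted in water to a set application rate, sprayed onto 14-day-old plants raised in diluvial soil at 25° C to 30° C under glass. Both herbicidal effect and crop effect rated visually three weeks later.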

green foxtail [5] = assay: Test Example 5: herbicidal effect by foliage application, plastic box (Table 20, symbol G); format: in vivo, green foxtail (Setaria viridis); settings: foliage application, AAH 320 g/ha, evaluated three weeks after application
Method in brief: as §3

wild oat = assay: Test Example 5: herbicidal effect by foliage application, plastic box (Table 20, symbol I); format: in vivo, wild oat (Avena fatua); settings: foliage application, AAH 320 g/ha, evaluated three weeks after application
Method in brief: as §3

windgrass = assay: Test Example 5: herbicidal effect by foliage application, plastic box (Table 20, symbol L); format: in vivo, windgrass (Apera spica-venti); settings: foliage application, AAH 320 g/ha, evaluated three weeks after application
Method in brief: as §3

chickweed [6] = assay: Test Example 5: herbicidal effect by foliage application, plastic box (Table 20, symbol P); format: in vivo, common chickweed (Stellaria media); settings: foliage application, AAH 320 g/ha, evaluated three weeks after application
Method in brief: as §3

persian speedwell = assay: Test Example 5: herbicidal effect by foliage application, plastic box (Table 20, symbol R); format: in vivo, Persian speedwell (Veronica persica); settings: foliage application, AAH 320 g/ha, evaluated three weeks after application
Method in brief: as §3

| SMILES | Herbicidal effect on A: late watergrass (grade 0-5) (late watergrass) | herbicidal effect rating, B: Japanese bulrush (Japanese bulrush) | herbicidal effect rating, C: oval-leafed pondweed (oval-leafed pondweed) | herbicidal effect on E: rice flat sedge (rice flat sedge) | herbicidal effect on F: southern crabgrass (southern crabgrass [1]) | herbicidal effect on G: green foxtail (green foxtail [2]) | herbicidal effect on K: Italian ryegrass (Italian ryegrass) | herbicidal effect on N: redroot pigweed (redroot pigweed) | herbicidal effect on P: chickweed (chickweed [3]) | F: southern crabgrass, herbicidal effect (criteria 0-5) (southern crabgrass [4]) | G: green foxtail, herbicidal effect (criteria 0-5) (green foxtail [5]) | I: wild oat, herbicidal effect (criteria 0-5) (wild oat) | L: windgrass, herbicidal effect (criteria 0-5) (windgrass) | P: chickweed, herbicidal effect (criteria 0-5) (chickweed [6]) | R: persian speedwell, herbicidal effect (criteria 0-5) (persian speedwell) |
| --- | --- | --- | --- | --- | --- | --- | --- | --- | --- | --- | --- | --- | --- | --- | --- |
| C=CCOC(=O)Oc1c(C)nn(C)c(=O)c1-c1c(-c2ccc(OC(F)F)cc2)sc2ccc(F)cc12 [2-294] | 5 (Herbicidal rate of 90% or more (almost completely withered)) | 3 (Herbicidal rate of 40% or more and less than 70%) | 3 (Herbicidal rate of 40% or more and less than 70%) | 5 (Herbicidal rate of 90% or more (almost completely withered)) | 5 (Herbicidal rate of 90% or more (almost completely withered)) | 5 (Herbicidal rate of 90% or more (almost completely withered)) | 5 (Herbicidal rate of 90% or more (almost completely withered)) | 5 (Herbicidal rate of 90% or more (almost completely withered)) | 5 (Herbicidal rate of 90% or more (almost completely withered)) | 5 (Herbicidal rate of 90% or more (almost completely withered)) | 5 (Herbicidal rate of 90% or more (almost completely withered)) | 3 (Herbicidal rate of 40% or more and less than 70%) | 3 (Herbicidal rate of 40% or more and less than 70%) | 5 (Herbicidal rate of 90% or more (almost completely withered)) | 5 (Herbicidal rate of 90% or more (almost completely withered)) |
| C=C(C)C(=O)Oc1c(C)nn(C)c(=O)c1-c1c(-c2ccc(OC(F)F)cc2)sc2ccc(F)cc12 [2-281] | 5 (Herbicidal rate of 90% or more (almost completely withered)) | 4 (Herbicidal rate of 70% or more and less than 90%) | 5 (Herbicidal rate of 90% or more (almost completely withered)) | 5 (Herbicidal rate of 90% or more (almost completely withered)) | 3 (Herbicidal rate of 40% or more and less than 70%) | 4 (Herbicidal rate of 70% or more and less than 90%) | 5 (Herbicidal rate of 90% or more (almost completely withered)) | 5 (Herbicidal rate of 90% or more (almost completely withered)) | 4 (Herbicidal rate of 70% or more and less than 90%) | 4 (Herbicidal rate of 70% or more and less than 90%) | 4 (Herbicidal rate of 70% or more and less than 90%) | 4 (Herbicidal rate of 70% or more and less than 90%) | 5 (Herbicidal rate of 90% or more (almost completely withered)) | 5 (Herbicidal rate of 90% or more (almost completely withered)) | 5 (Herbicidal rate of 90% or more (almost completely withered)) |
| COCCSCc1ccc(-c2sc3ccc(F)cc3c2-c2c(O)c(C)nn(C)c2=O)cc1 [2-327] | 3 (Herbicidal rate of 40% or more and less than 70%) | 2 (Herbicidal rate of 20% or more and less than 40%) | 0 (Herbicidal rate of 5% or less (almost no effect)) | 4 (Herbicidal rate of 70% or more and less than 90%) | 2 (Herbicidal rate of 20% or more and less than 40%) | 4 (Herbicidal rate of 70% or more and less than 90%) | 4 (Herbicidal rate of 70% or more and less than 90%) | 4 (Herbicidal rate of 70% or more and less than 90%) | 1 (Herbicidal rate of 5% or more and less than 20%) | 4 (Herbicidal rate of 70% or more and less than 90%) | 5 (Herbicidal rate of 90% or more (almost completely withered)) | 3 (Herbicidal rate of 40% or more and less than 70%) | 5 (Herbicidal rate of 90% or more (almost completely withered)) | 5 (Herbicidal rate of 90% or more (almost completely withered)) | 5 (Herbicidal rate of 90% or more (almost completely withered)) |
